pIC50: −log10 of the molar value. Some results are limits rather than exact numbers.

Experiment [1] relates to Paracentrotus lividus. Briefly: Antimitotic activity against sea urchin embryo assessed as embryo spinning measured 2.5 to 6 hrs post-fertilization observed after 15 min to 20 hrs of treatment by light microscopy analysis. The class given is functional. The conditions noted are these: time hrs 0.25-20.
Experiment [2] relates to Paracentrotus lividus. Kind of experiment: Antimitotic activity against sea urchin embryo assessed as cleavage alteration measured 2.5 to 6 hrs post-fertilization by light microscopy analysis. It counts as functional.
Experiment [3] concerns Paracentrotus lividus. Kind of experiment: Antimitotic activity against sea urchin embryo assessed as cleavage arrest measured 2.5 to 6 hrs post-fertilization by light microscopy analysis. It counts as functional. The conditions noted are these: time hrs 2.5-6.
Experiment [4] deals with MDA-MB-435. Kind of experiment: Cytotoxicity against human MDA MB 435 cells. The class given is functional.
Experiment [5] concerns K562. Kind of experiment: Cytotoxicity against human K562 cells. The class given is functional, cell-based.
Experiment [6] concerns Panel NCI-60 (60 carcinoma cell lines). Briefly: Cytotoxicity against human NCI60 cells. The class given is functional.
Experiment [7] deals with Tubulin (Homo sapiens) (UniProt P68371+Q9H4B7+P0DPH7+P68366+Q13509+Q71U36+P04350+Q3ZCM7+P07437+P68363+Q9BQE3+Q6PEY2+Q13885+Q9BVA1+Q9BUF5). Briefly: Binding affinity to tubulin (unknown origin) assessed as change in gibbs free energy. It counts as protein-complex assay.
Experiment [8] concerns Paracentrotus lividus. Kind of experiment: Antimitotic activity against sea urchin embryo assessed as cleavage arrest by phase microscopy analysis. The class given is functional.

Take `COc1cc2c(c(OC)c1OC)-c1ccc(OC)c(=O)cc1[C@@H](NC(C)=O)CC2` [COLCHICINE]: the results for the EC in experiment [1], in experiment [2] and in experiment [3] were 0.05 µM, 0.05 µM and 0.1 µM, respectively.
In general, GI50 refers to the concentration at which growth is held to half of that of the control. A high value points to lower sensitivity of the cells. One may read the pIC50 as −log10 of the IC50, conventionally taken in molar units. A lower pIC50 goes with a high IC50. Consider `COc1ccc(-c2conc2-c2ccccc2)cc1`, for which the concentration for 50% growth inhibition (GI50) in experiment [4] stood at 26 nM; in experiment [6], 457 nM. Besides, the EC in experiment [1] was determined as 0.1 µM; in experiment [2], 0.005 µM; in experiment [3], 0.05 µM. Moreover, the pIC50 in experiment [5] is 7.33. Also, the deltaG in experiment [7] is -11.3 kcal/mol.
On to `COc1ccc(-c2nocc2-c2cc(OC)c(OC)c(OC)c2)cc1`, for which, in experiment [7], the deltaG is -10.9 kcal/mol.
As for `COc1ccc(-c2cnoc2-c2ccccc2)cc1`, the EC in experiment [1] came to 0.1 µM; in experiment [2] it was 0.002 µM; in experiment [3] it was 0.02 µM. For the same compound, the deltaG in experiment [7] is -11.9 kcal/mol.
Turning to `COc1ccc(/C=C\c2cc(OC)c(OC)c(OC)c2)cc1O` [COMBRETASTATIN A4], the figures for the EC in experiment [1], in experiment [2] and in experiment [3] were 0.05 µM, 0.002 µM and 0.01 µM, respectively. Moreover, the pIC50 in experiment [5] was 9.00. The deltaG in experiment [7] was -11.9 kcal/mol.
In the case of `COc1cc([C@@H]2c3cc4c(cc3[C@H](O)[C@H]3COC(=O)[C@H]23)OCO4)cc(OC)c1OC` [PODOFILOX], the EC in experiment [1] came out at 0.5 µM; in experiment [2], 0.02 µM; in experiment [3] it was 0.05 µM.
As for `COc1cc2c(c(OC)c1OC)-c1cc3c(cc1[C@H](OC(C)=O)[C@H]1COC(=O)[C@@H]1C2)OCO3` [(-)-STEGANACIN], in experiment [8], the EC stood at 0.3 µM.
On to `COc1ccc(-c2oncc2-c2ccccc2)cc1`, for which the EC in experiment [1] is above 5 µM; in experiment [2] it was 0.2 µM; in experiment [3], 2 µM. In addition, the deltaG in experiment [7] is -9.15 kcal/mol.
`COc1cc(-c2cc(-c3cccc(O)c3)cnc2N)cc(OC)c1OC`: the EC in experiment [1] is 1 µM; in experiment [2] it was 0.1 µM; in experiment [3], 1 µM.
As for `COc1ccc(-c2nocc2-c2ccccc2)cc1`, the EC in experiment [1] was determined as 2 µM; in experiment [2], 0.2 µM; in experiment [3], 2 µM. Moreover, the deltaG in experiment [7] was -9.15 kcal/mol.

Source of the values: ChEMBL document CHEMBL4699565, “Computational modeling and target synthesis of monomethoxy-substituted o-diphenylisoxazoles with unexpectedly high antimitotic microtubule destabilizing activity” (Bioorg Med Chem Lett, 2020).
